# Source: patent publication EP4342530A1, “SORTILIN MODULATORS” (Insusense ApS, priority 2022, dated 2024)
# Several values for one entry are separate records, joined by “and”; a condition that tells them apart may be missing. Equal values may be shown once.
# Tests used:
# h-Sortilin = molecular target: T1, h-Sortilin (Homo sapiens, UniProt Q99523); assay: Neurotensin scintillation proximity assay (displacement of [3H]-neurotensin binding); conditions: 150 nM 6his-Sortilin, 5 nM [3H]-Neurotensin; average of at least 2 determinations; read-out: IC50 [3H]Neurotensin SPA
# T1 sequence (Q99523 78-831): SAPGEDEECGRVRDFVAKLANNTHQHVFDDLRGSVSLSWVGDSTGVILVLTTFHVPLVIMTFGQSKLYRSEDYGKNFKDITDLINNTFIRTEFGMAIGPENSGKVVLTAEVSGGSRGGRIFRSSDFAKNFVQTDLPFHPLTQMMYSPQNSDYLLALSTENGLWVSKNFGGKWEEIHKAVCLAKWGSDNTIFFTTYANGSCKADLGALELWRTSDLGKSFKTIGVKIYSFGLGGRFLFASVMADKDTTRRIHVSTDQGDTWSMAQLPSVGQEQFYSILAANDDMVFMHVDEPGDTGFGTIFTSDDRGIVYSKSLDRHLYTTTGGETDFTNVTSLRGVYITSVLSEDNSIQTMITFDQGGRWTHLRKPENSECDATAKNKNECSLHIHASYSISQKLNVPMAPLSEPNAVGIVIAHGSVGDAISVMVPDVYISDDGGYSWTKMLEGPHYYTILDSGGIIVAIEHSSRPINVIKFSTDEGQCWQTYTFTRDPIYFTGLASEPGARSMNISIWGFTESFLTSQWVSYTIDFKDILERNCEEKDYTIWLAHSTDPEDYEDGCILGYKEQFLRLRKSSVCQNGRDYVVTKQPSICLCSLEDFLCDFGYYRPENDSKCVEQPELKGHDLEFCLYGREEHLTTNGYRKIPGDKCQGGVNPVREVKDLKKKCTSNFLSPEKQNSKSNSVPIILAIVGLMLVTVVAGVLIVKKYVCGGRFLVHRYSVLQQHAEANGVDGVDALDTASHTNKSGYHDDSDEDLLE
# Protocol: The exemplified compounds of the invention were tested in a Neurotensin (NTS) scintillation proximity assay (SPA). NTS, which is a 13 amino acid neuropeptide, is a sortilin ligand. The IC50 is a measure of the amount of the compound required to inhibit the binding of NTS to sortilin by 50%. The skilled person will recognise that the lower the IC50 value, the less of the compound needed to achieve the desired effect, and as a result, the chances of undesirable off-target effects are reduced.
# Compound affinity was determined by measuring the displacement of [3H]-neurotensin binding to h-Sortilin in SPA format. Total volume of 40 µl in 50 mM HEPES pH 7.4 assay buffer containing 100 mM NaCl, 2.0 mM CaCl2, 0.1% BSA and 0.1% Tween-20. Compound pre-incubation for 30 minutes at room temperature with 150 nM of 6his-Sortilin before 5 nM [3H]-Neurotensin and Ni chelate imaging beads (Perkin Elmer) were added, after 6 hours the plate was read on a ViewLux with 360 s exposure time. Dose-response evaluation of compounds was performed with 8 concentrations of drugs (covering 3 decades). IC50 values were calculated by nonlinear regression using the sigmoid concentration-response (variable slope) using CDD Vault software. All values reported are average of at least 2 determinations.
# Sortilin = molecular target: T2, Sortilin (Homo sapiens, UniProt Q99523); assay: Creoptix (GCI) binding kinetics, human Sortilin; conditions: Species Human, screened at 1 µM, 25 degrees Celsius
# T2 construct: purchased Bio-Techne Ltd 3154-ST-050
# T2 sequence (Q99523 78-755 limits assumed): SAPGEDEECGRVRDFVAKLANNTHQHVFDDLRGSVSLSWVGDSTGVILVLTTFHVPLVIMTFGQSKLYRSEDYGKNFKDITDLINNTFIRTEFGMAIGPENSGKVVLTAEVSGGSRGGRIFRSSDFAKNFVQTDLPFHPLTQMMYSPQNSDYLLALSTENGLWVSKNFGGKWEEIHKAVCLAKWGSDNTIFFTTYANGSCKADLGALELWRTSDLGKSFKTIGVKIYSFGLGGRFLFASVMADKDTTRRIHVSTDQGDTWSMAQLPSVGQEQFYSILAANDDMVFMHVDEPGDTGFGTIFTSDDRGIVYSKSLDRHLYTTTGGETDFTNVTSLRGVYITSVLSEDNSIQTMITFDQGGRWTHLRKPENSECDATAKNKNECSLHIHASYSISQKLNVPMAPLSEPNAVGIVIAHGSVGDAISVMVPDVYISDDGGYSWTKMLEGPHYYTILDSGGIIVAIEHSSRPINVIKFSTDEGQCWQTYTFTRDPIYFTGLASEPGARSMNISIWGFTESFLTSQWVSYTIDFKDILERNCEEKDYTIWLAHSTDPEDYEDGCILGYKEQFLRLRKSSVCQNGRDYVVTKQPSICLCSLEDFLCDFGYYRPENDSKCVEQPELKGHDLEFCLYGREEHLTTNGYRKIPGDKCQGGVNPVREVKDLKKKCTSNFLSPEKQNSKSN
# Protocol: Creoptix (GCI) method - using SEQ ID NO.4 (Murine sortillin)
# A protein, bound to a surface, is bathed in a solution containing potential ligands giving rise to binding kinetics to generate Kon and Koff rates, as well as a Kd.
# All buffers described were filtered using a 0.2µm filter (Product number: 10300461, Nalgene) and degassed for 15 minutes prior to use.
# A flow cell temperature of 25 degrees Celsius was used throughout the experiment.
# A 4PCH chip was conditioned across all flow cells using 0.2 X concentration running buffer (running buffer composition: 1XHBS-N, pH 7.4, 3.4 mM EDTA, 1% DMSO) using pre-set conditioning wizard (WAVE control software) injecting: 0.1 M borate, 1 M NaCl (pH 9) followed by three start-up injections of 0.2 X running buffer.
# A buffer exchange was performed and 1x running buffer (1XHBS-N, pH 7.4, 3.4 mM EDTA, 1% DMSO) used during the immobilisation procedure: An initial injection of EDC/NHS (mixed in 1:1 ratio) was performed across all 4-flow cells to activate the surface for amine coupling of ligands.
# Recombinant Sortilin aliquots were thawed quickly by hand and centrifuged at 13,300 rpm for 10 minutes. A 10 µg/ml protein solution was then made in pH 5.0 acetate and injected once for 20 minutes over flow-cells 2, 3 and 4 for human, human (flow cells 2 & 3), and mouse Sortilin respectively followed by a 60 second dissociation period.
# A final 7-minute passivation injection of 50 mM tris was used across all flow cells.
# A flow rate of 10 µl/min was used for all conditioning and immobilisation cycles.
# Compounds were screened at 1 µM using the in-built 'intermediate binders' settings: 100 ul/min, 45 s baseline, 25 s association, 300 s dissociation, with blanks every 5th sample and a DMSO correction (1.5 % DMSO at the start and end of the experiment as well as every 20 cycles. An acquisition rate of 10 Hz was used throughout the experiment.
# Compounds were screened at a final assay concentration of 1 µM and a final DMSO concentration was 1 %. To achieve this, compounds were diluted in DMSO from 10 mM stocks to 100 µM (100 x final assay concentration) then diluted 1:100 in running buffer which contained no DMSO to establish a final assay concentration of compound of 1 µM and a final DMSO concentration of 1 % [DMSO].
# Compounds and DMSO were mixed by plate shaking at 1000 rpm for 60 seconds using a Bioshake instrument.
# A flow rate of 100 µl/min was used throughout the experiment.
# Data was evaluated using the RAPID kinetic analysis tool in the GCI WAVE_control software with data fitted using a standard 1:1 kinetic BioModel.
Compound,IC50 (h-Sortilin) [nM],Kd (Sortilin; Form of Compound Free acid),Kd (Sortilin; Form of Compound Mesylate salt) [nM]
"CC(C)(C)CC[C@H](NCc1ccc2c(c1)CCOC2)C(=O)O [Example 1, (S)-2-((isochroman-6-ylmethyl)amino)-5,5-dimethylhexanoic acid]",270,107 nM,–
"CC(C)(C)CC[C@H](NCc1cnc2c(c1)COCC2)C(=O)O [Example 2, (2S)-5,5-dimethyl-2-[({5H,7H,8H-pyrano[4,3-b]pyridin-3-yl}methyl)amino]hexanoic acid]",350,172 nM,–
"CC(C)(C)CC[C@H](NCc1ccc2c(c1)OCCC2)C(=O)O [Example 5, (2S)-2-{[(3,4-dihydro-2H-1-benzopyran-7-yl)methyl]amino}-5,5-dimethylhexanoic acid]",310,63.4 nM,–
"CC(C)(C)CC[C@H](NCc1ccc2c(c1)CCC2)C(=O)O [Example 6, (2S)-2-{[(2,3-dihydro-1H-inden-5-yl)methyl]amino}-5,5-dimethylhexanoic acid]",210,117 nM,–
"CC(C)(C)CC[C@H](NCc1cnc2c(c1)CCCC2)C(=O)O [Example 7, (S)-5,5-dimethyl-2-(((5,6,7,8-tetrahydroquinolin-3-yl)methyl)amino)hexanoic acid]",140,264 nM,–
"CC(C)(C)CC[C@H](NCc1cnc2c(c1)CCC2)C(=O)O [Example 8, (2S)-2-[({5H,6H,7H-cyclopenta[b]pyridin-3-yl}methyl)amino]-5,5-dimethylhexanoic acid]",500,191 nM,–
"C[C@@H](N[C@@H](CCC(C)(C)C)C(=O)O)c1ccc2c(c1)CCCC2 [Example 11, (S)-5,5-dimethyl-2-(((R)-1-(5,6,7,8-tetrahydronaphthalen-2-yl)ethyl)amino)hexanoic acid]",120,36.6 nM,40.7
C[C@@H](N[C@@H](CCC(C)(C)C)C(=O)O)c1ccc2c(c1)CCC2 [Example 13],210,–,57.5
C[C@H](N[C@@H](CCC(C)(C)C)C(=O)O)c1ccc2c(c1)CCC2 [Example 14],280,–,35.1
"CC(C)(C)CC[C@H](NCc1ccc2c(c1)NCCC2)C(=O)O [Example 17, (2S)-5,5-dimethyl-2-{[(1,2,3,4-tetrahydroquinolin-7-yl)methyl]amino}hexanoic acid]",190,97.3 nM,–
"CN1C(=O)COc2ccc(CN[C@@H](CCC(C)(C)C)C(=O)O)cc21 [Example 21, (2S)-5,5-dimethyl-2-{[(4-methyl-3-oxo-3,4-dihydro-2H-1,4-benzoxazin-6-yl)methyl]amino}hexanoic acid]",260,164 nM,–
"Cn1c(=O)oc2cc(CN[C@@H](CCC(C)(C)C)C(=O)O)ccc21 [Example 22, (2S)-5,5-dimethyl-2-{[(3-methyl-2-oxo-2,3-dihydro-1,3-benzoxazol-6-yl)methyl]amino}hexanoic acid]",470,350 nM,–
"CN1C(=O)COc2cc(CN[C@@H](CCC(C)(C)C)C(=O)O)ccc21 [Example 25, (2S)-5,5-dimethyl-2-{[(4-methyl-3-oxo-3,4-dihydro-2H-1,4-benzoxazin-7-yl)methyl]amino}hexanoic acid]",950,563 nM and 158 nM,–
"CN1C(=O)CCc2ccc(CN[C@@H](CCC(C)(C)C)C(=O)O)cc21 [Example 28, (2S)-5,5-dimethyl-2-{[(1-methyl-2-oxo-1,2,3,4-tetrahydroquinolin-7-yl)methyl]amino}hexanoic acid]",220,317 nM,–
"CC(C)(C)CC[C@H](N[C@@H](c1cnc2c(c1)CCCC2)C(F)(F)F)C(=O)O [Example 33, (2S)-5,5-dimethyl-2-{[(1S)-2,2,2-trifluoro-1-(5,6,7,8-tetrahydroquinolin-3-yl)ethyl]amino}hexanoic acid]",130,28 nM,–
CC(C)(C)CC[C@H](NCc1cccc(Oc2ccccc2)c1)C(=O)O [Example 34],820,216 nM,–
"CC(C)(C)CC[C@H](NCc1ccc(Oc2ccccc2)nc1)C(=O)O [Example 38, (2S)-5,5-dimethyl-2-{[(6-phenoxypyridin-3-yl)methyl]amino}hexanoic acid]",340,–,49.1
C[C@@H](N[C@@H](CCC(C)(C)C)C(=O)O)c1ccc(Oc2ccccc2)nc1 [Example 43],410,68.3 nM,–
C[C@H](N[C@@H](CCC(C)(C)C)C(=O)O)c1ccc(Oc2ccccc2)nc1 [Example 44],740,127 nM,–
CC(C)(C)CC[C@H](N[C@@H](c1ccc2c(c1)CCCC2)C(F)F)C(=O)O [Example 45],120,43.9 nM,–
CC(C)(C)CC[C@H](N[C@@H](c1ccc2c(c1)OCCC2)C(F)F)C(=O)O [Example 46],130,43.4 nM,–
CC(C)(C)CC[C@H](N[C@@H](c1ccc2c(c1)CCCC2)C(F)(F)F)C(=O)O [Example 47],160,75.3 nM,–
C[C@@H](N[C@@H](CCC(C)(C)C)C(=O)O)c1ccc2c(c1)N(C)CCC2 [Example 48],–,46.2 nM,–
CC(C)(C)CC[C@H](N[C@@H](c1ccc2c(c1)CCC2)C(F)(F)F)C(=O)O [Example 49],220,504 nM,–
